Patent US20030212100A1, “Quinoline derivatives and medicinal use thereof” (priority 2000, published 2003)

Tests used:
[1] = molecular target: T1, human PPARγ receptor (Homo sapiens, UniProt P37231); test: Luciferase reporter assay of PPARγ agonist activity (Gal4-PPARγ chimera receptor in CV-1 cells); assay type: cell-based; conditions: luciferase activity with 1 μM Pioglitazone taken as 100, read-out: PPAR γ agonist activity, relative activity; for Emax at 0.1 µM: CV-1, 0.1 μM compound; for Emax at 1 µM: CV-1, 1 μM compound; for Emax at 10 µM: CV-1, 10 μM compound
T1 construct: corresponding to Ser204-Tyr506 for human PPARγ1 receptor and human PPARγ2; expressed in transfected cells; host or cells: CV-1 cells (pSG5-based expression vector)
T1 sequence (P37231 204-505 limits assumed): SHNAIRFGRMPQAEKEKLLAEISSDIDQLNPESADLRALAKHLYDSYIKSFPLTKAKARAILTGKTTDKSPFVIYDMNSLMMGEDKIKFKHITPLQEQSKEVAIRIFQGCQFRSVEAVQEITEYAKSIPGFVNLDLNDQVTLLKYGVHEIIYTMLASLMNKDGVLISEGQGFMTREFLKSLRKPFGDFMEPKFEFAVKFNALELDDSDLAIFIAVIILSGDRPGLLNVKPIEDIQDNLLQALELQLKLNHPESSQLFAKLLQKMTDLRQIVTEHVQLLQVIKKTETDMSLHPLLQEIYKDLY
Method: (§1) Measurement of PPARα Agonist Activity and PPARγ Agonist Activity
(§2) 1. Materials for Assay of Luciferase Using Human PPARα and PPARγ Receptors
(§3) The entire procedure was carried out according to the fundamental methods of genetic engineering and the ordinary method in the yeast one-hybrid or two-hybrid system was applied.
(§4) PGL2-UAS5-TK-luc was prepared as a reporter plasmid carrying a response sequence of Gal4 protein as a basic transcription factor of yeast, an enhancer sequence with five repeat part of UAS, a luciferase gene (luc) under the control of timidine kinase (TK) promoter. Specifically, a DNA fragment encoding a TK promoter (−105/+51) on the downstream side of an enhancer sequence comprising two time repeat of UAS was amplified by PCR using pRL-TK carrying a TK promoter (Promega, Trade name: Catalogue No. E2241) as the template and the primers: […]
(§5) After the fragment was cleaved with XhoI-Hind III, pGL2-UAS2-TK-luc was obtained by inserting the resultant fragment into the XhoI-Hind III site located on the upstream side of a luciferase structural gene on pGL2-Basic vector (Promega, Trade name: Catalogue No. E1641).
(§6) After cleavage of a synthetic DNA as an enhancer sequence comprising three time repeat of Gal4 response sequence (SEQ ID NO: 3): 5′-ATTGGTAC([…])×3 AGATCTCGAC) using KpnI and BgIII was carried out, pGL2-UAS5-TK-luc was prepared by inserting the resulting fragment into the KpnI-BgIIIb site of pGL2-UAS2-TK-luc.
(§7) A vector for expression of a chimera receptor protein, in which a ligand binding region of an internuclear receptor human PPARα or PPARγ receptor was fused with the carboxyl terminal of a DNA binding region of yeast Ga14 protein, was prepared as follows:
(§8) The structural gene of pSG5 (STRATAGENE, Trade Name: Catalogue No. 216201) as the basic expression vector was changed for the chimera receptor except that the promoter-enhancer region was maintained as it was.
(§9) The DNA encoding the ligand binding region of the human PPARα or PPARγ receptor was fused on the downstream side of the DNA encoding the DNA binding region and the amino acid sequence from 1 to 147 positions of Ga14 protein so that their reading frames were fitted and the resulting fused DNA was inserted into pSG5 (trade name) on the down stream side of the promoter-enhancer region. In this step, the DNA sequence was arranged so that a signal for transfer into the nucleus (Ala Pro Lys Lys Lys Arg Lys Val Gly (SEQ ID: No: 4) derived from SV-40T antigen was located on the amino terminal of the ligand binding region of PPARα or PPARγ receptor in order to localize the chimera receptor in the nucleus.
(§10) Based on comparison of the human PPAR receptors described in R. Mukherjee et al., [see J. Steroid Biochem. Molec. Biol., Vol. 51, p157 (1994)] and M. E. Green et al., [see Gene Expression, Vol. 4, p281 (1995))], as the structural gene part used for the ligand binding region PPARα or PPARγ, the human PPARα ligand binding region: Ser167-Tyr468; and the PPARγ ligand binding region: Ser176-Tyr478 were used, which had the same sequences corresponding to Ser204-Tyr506 for human PPARγ1 receptor and human PPARγ2, respectively.
(§11) In order to monitor influence against the basic transcription, an expression vector was prepared which carried a DNA encoding only the DNA binding region and the amino acid sequence from 1 to 147 position of Ga14 protein defective in its PPAR ligand binding region and a signal for transfer into the nucleus of SV-40T-antigen.
(§12) 2. Assay of Luciferase Using Human PPARα or PPARγ Receptor
(§13) CV-1 cells used as a host cell were cultivated according to an ordinary method. Specifically, a fetal bovine serum (Intergent, Catalogue No. 1020-90) was added to a Dulbecco's modified Eagle's medium (DMEM) so that the final concentration became 10%. Further, penicillin G (50 U/ml) and streptomycin sulfate (50 μg/ml) were added. Cultivation was conducted in the resulting medium in a 5% carbon dioxide gas at 37° C. […]

[2] = molecular target: T2, human PPARα receptor (Homo sapiens, UniProt Q07869); test: Luciferase reporter assay of PPARα agonist activity (Gal4-PPARα chimera receptor in CV-1 cells); assay type: cell-based; conditions: luciferase activity with 10 μM Wy-14,643 taken as 100, read-out: PPARα agonist activity, relative activity; for Emax at 0.1 µM: CV-1, 0.1 μM compound; for Emax at 1 µM: CV-1, 1 μM compound; for Emax at 10 µM: CV-1, 10 μM compound
T2 construct: expressed in transfected cells; host or cells: CV-1 cells (pSG5-based expression vector)
T2 sequence (Q07869 167-468): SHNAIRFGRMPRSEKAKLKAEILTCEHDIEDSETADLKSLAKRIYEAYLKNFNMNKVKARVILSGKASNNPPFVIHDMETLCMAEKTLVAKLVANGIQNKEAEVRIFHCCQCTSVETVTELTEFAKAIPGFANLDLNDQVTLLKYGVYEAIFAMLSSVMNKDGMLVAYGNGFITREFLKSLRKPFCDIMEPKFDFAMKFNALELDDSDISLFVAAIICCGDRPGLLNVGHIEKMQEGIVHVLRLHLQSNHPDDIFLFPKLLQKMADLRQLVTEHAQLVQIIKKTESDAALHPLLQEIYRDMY
Method: as §1, §2, §3, §4, §5, §6, §7, §8, §9, §10, §11, §12, §13

[3] = test system: KK-Ay/Ta Jci type 2 diabetes mice; test: In-vivo blood sugar and lipid reduction in diabetes model mice (KKAy mice); set-up: species or system mouse; conditions: 30 mg/kg orally one time per day for 4 days, 5th day vs 1st day; for Reduction in free fatty acid (%) / Reduction in triglyceride (%): plasma
Method: Test for in-vivo Evaluation of the Activities for Blood Sugar Reduction and Lipid Reduction Using Diabetes Model Mice (KKAy Mice)
Type 2 diabetes mice “KK-Ay/Ta Jci” (male, Clea Japan, Inc., 10-week old) put in cages were used (each cage contained 5 mice). In the morning of the 1st day of test start, a blood was collected from the orbital vein of each mouse. The blood sugar value in the blood was measured by subjecting the blood to deproteinization using perchloric acid, subjecting the resulting material to centrifugation, and subjecting the resulting supernatant liquid to a new blood sugar test (Boehringer Mannheim). Further, the blood was subjected to centrifugation to obtain a plasma and the triglyceride concentration and free fatty acid concentration in the plasma were measured using Triglyceride E-Test Wako and NEFA-C Test Wako (Wako Pure Chemical Industries, Ltd.), respectively. Grouping was made so that the blood sugar values in individual groups became the same. Then, an Example 2 compound (exemplary compound No. 61) was suspended in a 0.5% aqueous CMC solution and administered orally one time per day for 4 days. In the 5th day of test, blood collection was made to measure blood sugar value, triglyceride concentration and free fatty acid concentration. Incidentally, a group to which only the 0.5% aqueous CMC solution was administered, was used as a control group; and Pioglitazone was used in a positive control group. The reduction in parameter in each group was calculated using the following formula.
Reduction (%)={1−(parameter of 5th day in each group)/(parameter of 1st day in each group)}×100

Row | Structure (SMILES) | Emax at 0.1 µM [1] [%] | Emax at 1 µM [1] [%] | Emax at 10 µM [1] [%] | Emax at 0.1 µM [2] [%] | Emax at 1 µM [2] [%] | Emax at 10 µM [2] [%] | Reduction in blood sugar (%) [3] [%] | Reduction in free fatty acid (%) [3] [%] | Reduction in triglyceride (%) [3] [%]
1 | CCOC(Cc1ccc(OCc2cnc3cc(C(F)(F)F)ccc3c2OC(C)C)cc1)C(=O)O (stereo not shown) [Example 12 (85), 2-ethoxy-3-{[4-(4-isopropoxy-7-trifluoromethylquinoline-3-yl)methyloxy]phenyl}propanoic acid] | 1.2 | 60.4 | 111 | 0.2 | 0.3 | 6.4 | – | – | –
2 | CCc1ccc(CCOc2ccc(CC3SC(=O)NC3=O)cc2)nc1 (stereo not shown) [Pioglitazone, reference compound] | – | – | – | – | – | – | 28 | 49 | 60
3 | CCOC(=O)C(Cc1ccc(OCc2cnc3ccc(OC)cc3c2OC(C)C)cc1)OCC (stereo not shown) [Example 1 (101), ethyl 2-ethoxy-3-{[4-(4-isopropoxy-6-methoxyquinoline-3-yl)methyloxy]phenyl}propanoate] | 98.6 | 127 | 102 | 0.2 | 0.9 | 28.7 | – | – | –
4 | CCOC(Cc1ccc(OCc2cnc3ccc(OC)cc3c2OC(C)C)cc1)C(=O)O (stereo not shown) [Example 2 (61), 2-ethoxy-3-{[4-(4-isopropoxy-6-methoxyquinoline-3-yl)methyloxy]phenyl}propanoic acid] | 85 | 114 | – | – | 10.4 | 24.6 | 50 | 46 | 57
5 | CCOC(Cc1ccc(OCc2cnc3cc(C)cc(C)c3c2OC(C)C)cc1)C(=O)O (stereo not shown) [Example 5 (71), 2-ethoxy-3-{[4-(4-isopropoxy-5,7-dimethylquinoline-3-yl)methyloxy]phenyl}propanoic acid] | 0.3 | 0.4 | 11.6 | 0.3 | 0.5 | 28.4 | – | – | –
6 | CCOC(Cc1ccc(OCc2cc(OC)c3ccccc3n2)cc1)C(=O)O (stereo not shown) [Example 11 (99), 2-ethoxy-3-{[4-(4-methoxyquinoline-2-yl)methyloxy]phenyl}propanoic acid] | 75.2 | 115 | 106 | 25.2 | 64.3 | 68.6 | – | – | –
7 | CCCCCCCCOc1c(COc2ccc(CC(OCC)C(=O)O)cc2)cnc2ccc(OC)cc12 (stereo not shown) [Example 7 (63), 2-ethoxy-3-{[4-(4-octyloxy-6-methoxyquinoline-3-yl)methyloxy]phenyl}propanoic acid] | 13.5 | 63.3 | 114 | 0.4 | 4.5 | 64.4 | – | – | –
8 | CCOC(Cc1ccc(OCc2cnc3c(C(F)(F)F)cccc3c2OC(C)C)cc1)C(=O)O (stereo not shown) [Example 14 (86), 2-ethoxy-3-{[4-(4-isopropoxy-8-trifluoromethylquinoline-3-yl)methyloxy]phenyl}propanoic acid] | 19.6 | 76 | 132 | 0.3 | 0.3 | 2.1 | – | – | –
9 | COc1ccc2ncc(COc3ccc(/C=C(\Sc4ccccc4)C(=O)O)cc3)c(OC(C)C)c2c1 [Example 18 (112), 3-{[4-(4-isopropoxy-6-methoxyquinoline-3-yl)methyloxy]phenyl}-2-phenylthiopropenoic acid] | 0.5 | 22.2 | 89.9 | 0.3 | 0.3 | 0.3 | – | – | –
